Several values for one entry are separate records, joined by “and”; a condition that tells them apart may be missing. Equal values may be shown once. Read-outs that look alike come from different tables or passages of the source. Peptide text beside a SMILES is read from it.
Assays:
Test in all cases: Fluorescence polarization SH3 domain-PRP binding
[1] = biological target: T1, ITSN1-4 SH3 domain (aa 1070-1138) (Homo sapiens, UniProt Q15811); details: FP, 0.2 µM fluorescein-labeled peptide, SH3 domain 0-200 µM, Tris/HCl pH 7.5, 25 °C, quadratic fit
T1 construct: 1070-1138; GST (N); made in house; host or cells: Escherichia coli CodonPlus, Rosetta, BL21(DE3)
T1 sequence (Q15811 1070-1138): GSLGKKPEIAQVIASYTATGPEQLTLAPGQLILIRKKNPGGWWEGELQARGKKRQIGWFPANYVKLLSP
Protocol: (§1) The interaction between fluorescein-labeled proline-rich peptides (0.2 µM) and increasing concentrations of SH3 domains (ranging from 0 to 200 µM) was measured in a buffer (containing 30 mM Tris/HCl (pH 7.5), 5 mM MgCl2, and 3 mM DTT at 25 °C) in a total volume of 200 µL using a Fluoromax 4 fluorimeter in polarization mode and a quartz glass fluorescence cuvette (Hellma Ultra-Micro Cuvette 105.250-QS, Thermo Fisher Scientific, Waltham, MA USA). Excitation was performed at 470 nm and emission was measured at 560 nm. Dissociation constants (Kd) were determined by fitting the concentration-dependent binding curve to a quadratic ligand binding equation.
(§2) Fluorescence polarization measurements were performed to determine the binding affinities of SH3 domain–PRP interaction pairs from the dot blot analysis. SH3 proteins were titrated at increasing concentrations against fluorescent PRPs, which were kept at a constant concentration of 0.2 µM. GRB2-2^W193K, which is defective in the binding of PRPs such as RP1, was used as a negative control as previously described. […] The resulting data (Figure S6) allowed the evaluation of equilibrium dissociation constants (Kd) for 45 interactions between the SH3 domains and the PRPs (Figure 2B; Table S6).
(§3) Figure S6. Interactions of the SH3 domains with fluorescent PRPs measured by fluorescence polarization.
(§4) Fluorescent peptides (0.2 µM) were titrated with increasing concentrations of the corresponding SH3 domains.
(§5) GRB2-2W193K, defective in the binding of PRPs such as RP1, was used as a negative control as previously described. The x-axis represents SH3 domain concentrations as GST fusion proteins in µM, while the y-axis represents fluorescence polarization. The equilibrium dissociation constants (Kd) for the respective measurements were determined by fitting the titration curves to a quadratic ligand-binding equation (solid lines). All Kd values are […]
(§6) Error bars are derived from the fitting errors.

[2] = biological target: T2, ITSN1-5 SH3 domain (aa 1155-1214) (Homo sapiens, UniProt Q15811); details: FP, 0.2 µM fluorescein-labeled peptide, SH3 domain 0-200 µM, Tris/HCl pH 7.5, 25 °C, quadratic fit
T2 construct: 1155-1214; GST (N); made in house; host or cells: Escherichia coli CodonPlus, Rosetta, BL21(DE3)
T2 sequence (Q15811 1155-1214): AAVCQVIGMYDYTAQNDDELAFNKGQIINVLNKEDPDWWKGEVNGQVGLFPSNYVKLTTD
Protocol: as §1, §2, §3, §4, §5, §6

[3] = biological target: T3, NCK1-1 SH3 domain (aa 2-61) (Homo sapiens, UniProt P16333); details: FP, 0.2 µM fluorescein-labeled peptide, SH3 domain 0-200 µM, Tris/HCl pH 7.5, 25 °C, quadratic fit
T3 construct: 2-61; GST (N); made in house; host or cells: Escherichia coli CodonPlus, Rosetta, BL21(DE3)
Protocol: as §1, §2, §3, §4, §5, §6

[4] = biological target: T4, NCK1-2 SH3 domain (aa 106-165) (Homo sapiens, UniProt P16333); details: FP, 0.2 µM fluorescein-labeled peptide, SH3 domain 0-200 µM, Tris/HCl pH 7.5, 25 °C, quadratic fit
T4 construct: 106-165; GST (N); made in house; host or cells: Escherichia coli CodonPlus, Rosetta, BL21(DE3)
Protocol: as §1, §2, §3, §4, §5, §6

[5] = biological target: T5, NCK1-3 SH3 domain (aa 190–252) (Homo sapiens, UniProt P16333); details: NCK1-3 (wt), FP, 0.2 µM fluorescein-labeled peptide, SH3 domain 0-200 µM, Tris/HCl pH 7.5, 25 °C, quadratic fit
T5 construct: 190–252; GST (N); made in house; host or cells: Escherichia coli CodonPlus, Rosetta, BL21(DE3)
Protocol: as §1, §2, §3, §4, §5, §6

NPHP1 SH3 domain = biological target: T6, NPHP1 SH3 domain (Homo sapiens, UniProt O15259); details: FP, 0.2 µM fluorescein-labeled peptide, SH3 domain 0-200 µM, Tris/HCl pH 7.5, 25 °C, quadratic fit
T6 construct: GST (N); made in house; host or cells: Escherichia coli CodonPlus, Rosetta, BL21(DE3)
T6 sequence (O15259 152-212 limits assumed): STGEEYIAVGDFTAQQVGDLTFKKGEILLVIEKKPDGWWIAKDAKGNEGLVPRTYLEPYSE
Protocol: as §1, §2, §3, §4, §5, §6

[6] = biological target: T7, RASA1 SH3 domain (aa 279–341) (Homo sapiens, UniProt P20936); details: FP, 0.2 µM fluorescein-labeled peptide, SH3 domain 0-200 µM, Tris/HCl pH 7.5, 25 °C, quadratic fit
T7 construct: 279–341; GST (N); made in house; host or cells: Escherichia coli CodonPlus, Rosetta, BL21(DE3)
T7 sequence (P20936 279-341): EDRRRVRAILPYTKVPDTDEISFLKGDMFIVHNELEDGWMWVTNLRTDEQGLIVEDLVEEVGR
Protocol: as §1, §2, §3, §4, §5, §6

[7] = biological target: T8, RIMBP3B-1 SH3 domain (aa 832-899) (Homo sapiens, UniProt A6NNM3); details: FP, 0.2 µM fluorescein-labeled peptide, SH3 domain 0-200 µM, Tris/HCl pH 7.5, 25 °C, quadratic fit
T8 construct: 832-899; GST (N); made in house; host or cells: Escherichia coli CodonPlus, Rosetta, BL21(DE3)
T8 sequence (A6NNM3 832-899): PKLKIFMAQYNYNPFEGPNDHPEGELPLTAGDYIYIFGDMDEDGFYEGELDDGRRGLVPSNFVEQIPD
Protocol: as §1, §2, §3, §4, §5, §6

[8] = biological target: T9, SH3GLB1 SH3 domain (aa 305-365) (Homo sapiens, UniProt Q9Y371); details: FP, 0.2 µM fluorescein-labeled peptide, SH3 domain 0-200 µM, Tris/HCl pH 7.5, 25 °C, quadratic fit
T9 construct: 305-365; GST (N); made in house; host or cells: Escherichia coli CodonPlus, Rosetta, BL21(DE3)
T9 sequence (Q9Y371 305-365): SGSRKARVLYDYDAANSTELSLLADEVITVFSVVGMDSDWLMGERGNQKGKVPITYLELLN
Protocol: as §1, §2, §3, §4, §5, §6

[9] = biological target: T10, SH3PXD2A-1 SH3 domain (aa 166-225) (Homo sapiens, UniProt Q5TCZ1); details: FP, 0.2 µM fluorescein-labeled peptide, SH3 domain 0-200 µM, Tris/HCl pH 7.5, 25 °C, quadratic fit
T10 construct: 166-225; GST (N); made in house; host or cells: Escherichia coli CodonPlus, Rosetta, BL21(DE3)
T10 sequence (Q5TCZ1 166-225): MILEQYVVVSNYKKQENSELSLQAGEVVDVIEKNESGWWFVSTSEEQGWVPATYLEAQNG
Protocol: as §1, §2, §3, §4, §5, §6

[10] = biological target: T11, SORBS1-1 SH3 domain (aa 793-852) (Homo sapiens, UniProt Q9BX66); details: FP, 0.2 µM fluorescein-labeled peptide, SH3 domain 0-200 µM, Tris/HCl pH 7.5, 25 °C, quadratic fit
T11 construct: 793-852; GST (N); made in house; host or cells: Escherichia coli CodonPlus, Rosetta, BL21(DE3)
T11 sequence (Q9BX66 793-852): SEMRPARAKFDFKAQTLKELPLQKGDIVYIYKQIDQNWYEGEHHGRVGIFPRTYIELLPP
Protocol: as §1, §2, §3, §4, §5, §6

[11] = biological target: T12, SRC SH3 domain (aa 77-140) (Homo sapiens, UniProt P12931); details: FP, 0.2 µM fluorescein-labeled peptide, SH3 domain 0-200 µM, Tris/HCl pH 7.5, 25 °C, quadratic fit
T12 construct: 77-140; GST (N); made in house; host or cells: Escherichia coli CodonPlus, Rosetta, BL21(DE3)
Protocol: as §1, §2, §3, §4, §5, §6

T12 sequence (P12931 77-140 limits assumed): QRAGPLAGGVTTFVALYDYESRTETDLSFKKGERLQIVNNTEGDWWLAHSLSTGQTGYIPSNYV

CC(C)[C@H](N)C(=O)N1CCC[C@H]1C(=O)N[C@H](C(=O)N1CCC[C@H]1C(=O)N1CCC[C@H]1C(=O)N1CCC[C@H]1C(=O)N[C@H](C(=O)N1CCC[C@H]1C(=O)N1CCC[C@H]1C(=O)N[C@@H](CCCNC(=N)N)C(=O)N[C@@H](CCCNC(=N)N)C(=O)N[C@@H](CCCNC(=N)N)C(=O)O)C(C)C)C(C)C [RP1, reference compound]
Kd [1]: > 200 µM | Kd [2]: > 200 µM | Kd ([3]; read-out: Kd): > 200 µM | Kd ([4]; read-out: Kd): 2 µM | Kd ([5]; read-out: Kd): 24.6 µM | Kd (NPHP1 SH3 domain): > 200 µM | Kd [6]: > 200 µM | Kd [7]: > 200 µM | Kd [8]: > 200 µM | Kd [9]: > 200 µM | Kd [10]: > 200 µM | Kd [11]: > 200 µM

CC[C@H](C)[C@H](NC(=O)[C@H](Cc1c[nH]cn1)NC(=O)[C@@H](N)CCC(N)=O)C(=O)N1CCC[C@H]1C(=O)N[C@@H](CCCCN)C(=O)N[C@@H](CC(C)C)C(=O)N1CCC[C@H]1C(=O)N1CCC[C@H]1C(=O)N[C@@H](CCCCN)C(=O)N[C@H](C(=O)N[C@@H](Cc1ccc(O)cc1)C(=O)O)[C@@H](C)O [Peptide P10] (H-QHIPKLPPKTY-OH; N-terminus and C-terminus assumed)
Kd [1]: > 200 µM | Kd [2]: > 200 µM | Kd ([3]; read-out: Kd): > 200 µM | Kd ([4]; read-out: Kd): > 200 µM | Kd ([5]; read-out: Kd): > 200 µM | Kd (NPHP1 SH3 domain): > 200 µM | Kd [6]: > 200 µM | Kd [7]: > 200 µM | Kd [8]: > 200 µM | Kd [9]: > 200 µM | Kd [10]: > 200 µM | Kd [11]: > 200 µM

CC(C)C[C@H](NC(=O)[C@@H]1CCCN1C(=O)[C@@H](NC(=O)[C@H](CCCNC(=N)N)NC(=O)[C@@H]1CCCN1C(=O)[C@H](CO)NC(=O)[C@H](CC(N)=O)NC(=O)[C@@H]1CCCN1C(=O)[C@H](C)NC(=O)[C@@H](N)CO)[C@@H](C)O)C(=O)N[C@H](C(=O)N1CCC[C@H]1C(=O)N1CCC[C@H]1C(=O)N1CCC[C@H]1C(=O)N[C@@H](C)C(=O)N[C@@H](CO)C(=O)O)[C@@H](C)O [Peptide P1] (H-SAPNSPRTPLTPPPAS-OH)
Kd [1]: > 200 µM | Kd [2]: 23 µM | Kd ([3]; read-out: Kd): > 200 µM | Kd ([4]; read-out: Kd): > 200 µM | Kd ([5]; read-out: Kd): > 200 µM | Kd (NPHP1 SH3 domain): > 200 µM | Kd [6]: > 200 µM | Kd [7]: > 200 µM | Kd [8]: > 200 µM | Kd [9]: > 200 µM | Kd [10]: > 200 µM | Kd [11]: > 200 µM

CC[C@H](C)[C@H](N)C(=O)N[C@@H](C)C(=O)NCC(=O)N1CCC[C@H]1C(=O)N1CCC[C@H]1C(=O)N[C@H](C(=O)N1CCC[C@H]1C(=O)N1CCC[C@H]1C(=O)N[C@@H](CCCNC(=N)N)C(=O)N[C@@H](CCC(N)=O)C(=O)N[C@@H](CO)C(=O)O)C(C)C [Peptide P9] (H-IAGPPVPPRQS-OH)
Kd [1]: > 200 µM | Kd [2]: > 200 µM | Kd [3]: do not bind | Kd ([3]; read-out: Kd): > 200 µM | Kd [4]: do not bind | Kd ([4]; read-out: Kd): > 200 µM | Kd [5]: tightly bound | Kd ([5]; read-out: Kd): 9 µM and 0.9 µM | Kd (NPHP1 SH3 domain): > 200 µM | Kd [6]: > 200 µM | Kd [7]: > 200 µM | Kd [8]: > 200 µM | Kd [9]: > 200 µM | Kd [10]: > 200 µM | Kd [11]: > 200 µM

Reference: publication PMC10814857, “Functional Classification and Interaction Selectivity Landscape of the Human SH3 Domain Superfamily” (Cells, 2024)
